Data published in patent US10507212B2, “Method for use of homopiperazinium compounds in the treatment of cancer” (UNIVERSITÉ LAVAL, priority 2014, dated 2019).
Where a name gives a salt, the structure may show the parent alone. Read-outs that look alike come from different tables or passages of the source.

Key:
[1] = test system: A549 adenocarcinoma cell line; assay: Cell proliferation assay, A549 (MTT)
Procedure: (§1) In vitro experiments were conducted on four cancer cell lines: the A549 adenocarcinoma cell line, the H520 squamous cell carcinoma the H82 small cell lung carcinoma and Calu 3 lung adenocarcinoma. The A549 tumor cells, were plated at a density of 1.5×10^4 cells per mL and let to adhere on 96-well microplates in F12K cell culture medium enriched with 10% fetal calf serum (FCS). The H520, H82 and Calu 3 tumor cells were plated at a density of 5×10^4 cells per mL in RPMI+10% FCS. After 24 h in culture, the medium was changed and cells were exposed to ASM-024 at concentrations ranging from 10^−7M to 10^−3M (FIGS. 1A-1C). After 3 and 6 days in culture, cell growth was quantified using the MTT colorimetric assay (M2128, Sigma) at 575-690 nm or the Cell Titer fluorescence assay (G8080, Promega) at 560/590 nm.
(§2) In an another set of experiments, a series of 16 other homopiperazinium compounds, in addition to ASM-024, were tested for their anti-proliferative effect on the four tumor cell lines described above after up to 6 days in culture at concentrations of 10^-7M to 10^-3M. (FIGS. 4A-4E) Cell growth was quantified using the MTT colorimetric assay for the A-549, H520 and Calu 3 cell lines and the CellTiter Fluorescence assay.for the H82 tumor cell line These are established method of determining viable cell number in proliferation studies.

[2] = test system: H520 squamous cell carcinoma; assay: Cell proliferation assay, H520 (MTT); type: cell-based
Procedure: as §1, §2

[3] = test system: H82 small cell lung carcinoma; assay: Cell proliferation assay, H82 (CellTiter fluorescence); type: cell-based; settings: for inhibition at 300 µM / inhibition at 100 µM / IC50: Homo sapiens; for inhibition at 300 µM / inhibition at 100 µM: read-out: % Inhibition of Cell Growth at day 3 compared to vehicle-treated cells
Procedure: as §1, §2

[4] = test system: Calu 3 lung adenocarcinoma; assay: Cell proliferation assay, Calu 3 (MTT); type: cell-based; settings: Homo sapiens
Procedure: as §1, §2

[5] = read-out: IC50 Day 3, A549, day 3 in culture
[6] = read-out: IC50 Day 6, A549, day 6 in culture
[7] = H520, day 3 in culture, read-out: IC50 Day 3
[8] = H520, day 6 in culture, read-out: IC50 Day 6
[9] = Homo sapiens, A549, 72 h, read-out: IC50 Day 3, A549, day 3 in culture
[10] = Homo sapiens, A549, 144 h, read-out: IC50 Day 6, A549, day 6 in culture
[11] = Homo sapiens, NCI-H520, 72 h, H520, day 3 in culture, read-out: IC50 Day 3
[12] = Homo sapiens, NCI-H520, 144 h, H520, day 6 in culture, read-out: IC50 Day 6
[13] = NCI-H82, 72 h, H82, day 3, 3 × 10^−4M
[14] = NCI-H82, 72 h, H82, day 3, 10^−4M
[15] = Homo sapiens, NCI-H520, 72 h, read-out: IC50 Day 3, H520, day 3 in culture
[16] = Homo sapiens, NCI-H520, 144 h, read-out: IC50 Day 6, H520, day 6 in culture
[17] = NCI-H82, 72 h, read-out: IC50 Day 3
[18] = NCI-H82, 144 h, read-out: IC50 Day 6
[19] = NCI-H82, 72 h, H82, day 3 in culture, read-out: IC50 Day 3
[20] = NCI-H82, 144 h, H82, day 6 in culture, read-out: IC50 Day 6
[21] = 72 h, Calu 3, day 3 in culture, read-out: IC50 Day 3
[22] = 144 h, Calu 3, day 6 in culture, read-out: IC50 Day 6

Structure (SMILES): CC[N+]1(CC)CCCN(c2ccccc2)CC1.[I-] [ASM-009, 1,1-Diethyl-4-phenyl-homopiperazinium Iodide]
- IC50 [1, 5]: 51 ± 6 µM
- IC50 [1, 6]: 48 ± 25 µM
- IC50 [2, 7]: 892 ± 98 µM
- IC50 [2, 8]: 396 ± 147 µM
- % Inhibition of Cell Growth at day 3 compared to vehicle-treated cells ([3]; H82, day 3, 3 × 10^−4M): 35%
- % Inhibition of Cell Growth at day 3 compared to vehicle-treated cells ([3]; H82, day 3, 10^−4M): −12%

Structure (SMILES): C[N+]1(C)CCCN(c2ccccn2)CC1 [ASM-016, 1,1-Dimethyl-4-(2-pyridyl)-homopiperazinium Iodide]
- IC50 [1, 9]: 90 ± 15 µM
- IC50 [1, 10]: 58 ± 22 µM
- IC50 [2, 11]: 415 ± 212 µM
- IC50 [2, 12]: 180 ± 92 µM
- inhibition at 300 µM [3, 13]: -6%
- inhibition at 100 µM [3, 14]: -22%

Structure (SMILES): CC[N+]1(CC)CCCN(c2ccccn2)CC1 [ASM-037, 1,1-Diethyl-4-(2-pyridyl)-homopiperazinium Tosylate]
- IC50 [1, 9]: 146 ± 92 µM
- IC50 [1, 10]: 112 ± 96 µM
- IC50 [2, 11]: > 1000 µM
- IC50 [2, 12]: 634 ± 124 µM
- inhibition at 300 µM [3, 13]: 29%
- inhibition at 100 µM [3, 14]: 10%

Structure (SMILES): CC[N+]1(CC)CCCN(c2ccccc2)CC1.[Br-] [ASM-021, 1,1-Diethyl-4-phenyl-homopiperazinium Bromide]
- IC50 [1, 9]: 45 ± 12 µM
- IC50 [1, 10]: 51 ± 39 µM
- IC50 [2, 7]: > 1000 µM
- IC50 [2, 12]: 369 ± 171 µM
- % Inhibition of Cell Growth at day 3 compared to vehicle-treated cells ([3]; H82, day 3, 3 × 10^−4M): 59%
- % Inhibition of Cell Growth at day 3 compared to vehicle-treated cells ([3]; H82, day 3, 10^−4M): 13%

Structure (SMILES): Cc1cccc(N2CCC[N+](C)(C)CC2)c1 [ASM-068, 4-Dimethyl-1-(3-methylphenyl)-homopiperazinium Tosylate]
- IC50 [1, 9]: 36 ± 17 µM
- IC50 [1, 10]: 20 ± 16 µM
- IC50 [2, 15]: 580 ± 85 µM
- IC50 [2, 16]: 233 ± 31 µM
- IC50 [3, 17]: 298 µM
- IC50 [3, 18]: 179 µM
- IC50 ([4]; Calu-3, 72 h, read-out: IC50 Day 3): > 1000 µM
- IC50 ([4]; Calu-3, 144 h, read-out: IC50 Day 6): 52 µM

Structure (SMILES): CC[N+]1(C)CCCN(c2ccccn2)CC1 (stereo not drawn) [ASM-017, 1-Ethyl-1-methyl-4-(2-pyridyl)-homopiperazinium Iodide]
- IC50 [1, 9]: 89 ± 13 µM
- IC50 [1, 10]: 65 ± 25 µM
- IC50 [2, 15]: 953 ± 39 µM
- IC50 [2, 16]: 469 ± 163 µM
- inhibition at 100 µM ([3]; NCI-H82, 72 h): -26%
- inhibition at 300 µM ([3]; NCI-H82, 72 h): -6%

Structure (SMILES): C[N+]1(C)CCCN(c2ccc(C(F)(F)F)cc2)CC1 [ASM-071, 4-Dimethyl-1-(4-trifluorophenyl)-homopiperazinium Iodide]
- IC50 [1, 5]: 25 ± 15 µM
- IC50 [1, 6]: 18 ± 9 µM
- IC50 ([2]; read-out: IC50 Day 3, H520, day 3 in culture): 523 ± 292 µM
- IC50 ([2]; read-out: IC50 Day 6, H520, day 6 in culture): 235 ± 179 µM

Structure (SMILES): CC[N+]1(CC)CCCN(c2ccccc2)CC1.[Cl-] [ASM-022, 1,1-Diethyl-4-phenyl-homopiperazinium Chloride]
- IC50 [1, 5]: 46 ± 7 µM
- IC50 [1, 6]: 45 ± 32 µM
- IC50 [2, 7]: > 700 µM
- IC50 [2, 8]: 387 ± 178 µM
- % Inhibition of Cell Growth at day 3 compared to vehicle-treated cells ([3]; H82, day 3, 3 × 10^−4M): 55%
- % Inhibition of Cell Growth at day 3 compared to vehicle-treated cells ([3]; H82, day 3, 10^−4M): 23%

Structure (SMILES): CC[N+]1(CC)CCCN(c2ccc(F)cc2)CC1 [ASM-049, 1,1-Diethyl-4-(4-fluorophenyl)-homopiperazinium Tosylate]
- IC50 [1, 9]: 81 ± 74 µM
- IC50 [1, 10]: 42 ± 34 µM
- IC50 [2, 11]: > 700 µM
- IC50 [2, 12]: 288 ± 61 µM
- IC50 [3, 19]: 331 µM
- IC50 [3, 20]: 252 µM
- IC50 [4, 21]: 452 µM
- IC50 [4, 22]: 109 µM

Structure (SMILES): CC[N+]1(C)CCCN(c2ccccc2)CC1.[I-] (stereo not drawn) (hydrate or solvate) [ASM-055, 1-Ethyl-1-Methyl-4-(phenyl)-homopiperazinium Tosylate]
- melting point: 167.5 to 168.7 °C

Structure (SMILES): C[N+]1(C)CCCN(c2ccc(C(F)(F)F)cc2)CC1 (as salt: tosylate) [ASM-058, 1,1-Dimethyl-4-(4-trifluoromethylphenyl)-homopiperazinium Tosylate]
- melting point: 212.6 to 213.4 °C

Structure (SMILES): Cc1cccc(N2CCC[N+](C)(C)CC2)c1 (as salt: tosylate) [ASM-068, 4-Dimethyl-1-(3-methylphenyl)-homopiperazinium Tosylate]
- melting point: 161.6 to 162.5 °C

Structure (SMILES): CC[N+]1(CC)CCCN(c2ccc(O)cc2)CC1 [ASM-073, 1,1-Diethyl-4-(phenyl-4-hydroxy)-homopiperazinium tosylate]
- IC50 [1, 9]: 119 ± 49 µM
- IC50 [1, 10]: 161 ± 82 µM
- IC50 [2, 15]: 187 ± 28 µM
- IC50 [2, 16]: 148 ± 14 µM
- inhibition at 100 µM ([3]; NCI-H82, 72 h): 100%
- inhibition at 300 µM ([3]; NCI-H82, 72 h): 100%

Structure (SMILES): CC[N+]1(CC)CCCN(c2ccc(O)cc2)CC1 (as salt: tosylate) [ASM-073, 1,1-Diethyl-4-(phenyl-4-hydroxy)-homopiperazinium tosylate]
- melting point: 144 to 145.5 °C

Structure (SMILES): C[N+]1(C)CCCN(c2ccc(C(F)(F)F)cc2)CC1 [ASM-058, 1,1-Dimethyl-4-(4-trifluoromethylphenyl)-homopiperazinium Tosylate]
- IC50 [1, 9]: 22 ± 10 µM
- IC50 [1, 10]: 27 ± 26 µM
- IC50 [2, 15]: 356 ± 143 µM
- IC50 [2, 16]: 210 ± 82 µM
- IC50 [3, 17]: 472 µM
- IC50 [3, 18]: 299 µM

Structure (SMILES): CC[N+]1(CC)CCCN(c2ccc(Cl)cc2)CC1 [ASM-048, 1,1-Diethyl-4-(4-chlorophenyl)-homopiperazinium Tosylate]
- IC50 [1, 9]: 37 µM
- IC50 [1, 10]: 15 µM
- IC50 [2, 11]: 322 µM
- IC50 [2, 12]: 169 µM
- IC50 [3, 19]: 246 µM
- IC50 [3, 20]: 176 µM
- IC50 [4, 21]: 276 µM
- IC50 [4, 22]: 86 µM

Structure (SMILES): CC(C)[N+]1(C)[C@@H]2CC[C@H]1C[C@@H](OC(=O)C(CO)c1ccccc1)C2 (stereo partly drawn) [ipratropium, reference compound]
- cytotoxic effect ([1]; A549, at 1000 μM): cytotoxic effect

Structure (SMILES): C[N+]1(C)[C@@H]2C[C@@H](OC(=O)C(O)(c3cccs3)c3cccs3)C[C@H]1[C@@H]1O[C@@H]12 [Tiotropium, reference compound]
- cell proliferation / cell growth inhibition (in words) ([1]; A549, day 3 and day 6, text on figures): no significant cell growth inhibition
- IC50 (in words) ([1]; A549, cell line not given): No IC50 could be calculated
- cell proliferation / cell growth inhibition (in words) ([2]; H520, day 3 and day 6, text on figures): no significant cell growth inhibition
- IC50 (in words) ([2]; H520, cell line not given): No IC50 could be calculated
- cell proliferation / cell growth inhibition (in words) ([3]; H82, day 3 and day 6, text on figures): no significant cell growth inhibition
- IC50 (in words) ([3]; H82, cell line not given): No IC50 could be calculated

Structure (SMILES): CCC[N+]1(C)CCCN(c2ccccn2)CC1 (stereo not drawn) [ASM-018, 1-Methyl-1-propyl-4-(2-pyridyl)-homopiperazinium Iodide]
- IC50 [1, 9]: 136 ± 39 µM
- IC50 [1, 10]: 82 ± 32 µM
- IC50 [2, 11]: > 1000 µM
- IC50 [2, 12]: 536 ± 101 µM
- inhibition at 300 µM [3, 13]: 35%
- inhibition at 100 µM [3, 14]: 15%

Structure (SMILES): CC[N+]1(C)CCCN(c2ccccc2)CC1 (stereo not drawn) [ASM-055, 1-Ethyl-1-Methyl-4-(phenyl)-homopiperazinium Tosylate]
- IC50 [1, 9]: 60 ± 26 µM
- IC50 [1, 10]: 28 ± 15 µM
- IC50 [2, 11]: 622 ± 211 µM
- IC50 [2, 12]: 272 ± 65 µM
- inhibition at 300 µM [3, 13]: 66%
- inhibition at 100 µM [3, 14]: 36%
